In patent publication US20230414626A1, “INDUCTION OF FERROPTOSIS FOR CANCER THERAPY” (Memorial Sloan Kettering Cancer Center, priority 2020, published 2023):

System: PTEN-defective PC-3 prostate cancer xenograft tumors
Assay: In vivo xenograft mouse model, PC-3
Conditions: PC-3 xenograft, nu/nu mice; IKE 50 mg/kg daily i.p.; CCI-779 2 mg/kg daily i.p.
Experimental: FIG. 6 A-F. Combination of mTORC1 inhibition with ferroptosis induction leads to tumor regression in vivo. (A) CRISPR/Cas9-mediated, Dox-induced GPX4 knockout (GPX4-iKO) in BT474 cells, monitored by western blot. (B) Images of resected tumors from mice xenografted with GPX4-iKO BT474 cells. Groups of mice were treated with CCI-779 and/or Dox as indicated (n=6 per group). See Methods for detail. (C) Representative haematoxylin and eosin (H&E) and immunostaining images of GPX4, Ki67, PTGS2 and pS235/236 S6, all counterstained with haematoxylin (blue), are shown from sections of xenografted tumors. Scale bar, 50 μm. (D) Growth curves of BT474 tumors of each group. Data are plotted as mean±s.d., n=6, on the linear scale for actual tumor size (upper panel) or the log 2 scale for the fold change of tumors (bottom panel). (E) Growth curves of PC-3 tumors of each group (n=6), on the linear scale for actual tumor size (upper panel) or the log 2 scale for the fold change of tumor size (bottom panel). […]
FIG. 13 A-E. Combination of mTORC1 inhibition with ferroptosis induction leads to tumor regression. […] (B) BT474 tumor volume was measured every day for each mouse. […] (E) PC-3 tumor volume was measured every day for each mouse. […]
For PC-3 tumor models, male athymic nu/nu mice aged 5 to 6 weeks were injected in the right flank with 5×10^6 PC-3 cells. Tumors were measured with callipers daily. […]

CC(C)Oc1ccc(C(=O)Cn2ccnc2)cc1-n1c(CN2CCN(C(=O)COc3ccc(Cl)cc3)CC2)nc2ccccc2c1=O [IKE, imidazole ketone erastin]
tumor growth: no effects on tumor growth
